In patent US8802661B2, “C-28 amides of modified C-3 betulinic acid derivatives as HIV maturation inhibitors” (priority 2010, dated 2014) one finds EC50 data, which are given here for six compounds.

Structures are written as SMILES.

The subject of one assay is recombinant NL4-3 virus (Renilla luciferase in nef, Gag P373S). The assay is described as follows: HIV Cell Culture Assay (luciferase reporter virus in MT-2 cells). The assay is classed as cell-based. As to conditions: NL43. In a few lines: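 Virus from 293T transfection, titered in MT-2 by luciferase. MT-2 (RPMI, 10% HI-FBS) infected ± inhibitor serial dilutions, 4-5 d. Readout: Dual Luciferase premix (lysis:reagent:Stop & Glo 2:1:1), immediate luminescence.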
For orientation: Reporter assays use an easily measured gene product as a stand-in for the process of interest.
The EC50 is the concentration giving half of the maximal effect. `C=C(C)[C@@H]1CC[C@]2(C(=O)NCCN(C(C)C)C(C)C)CC[C@]3(C)[C@H](CC[C@@H]4[C@@]5(C)CC=C(c6ccc(C(=O)O)cc6)C(C)(C)[C@@H]5CC[C@]43C)[C@@H]12` [Example 67, 4-((1R,3aS,5aR,5bR,7aR,11aS,11bR,13aR,13bR)-3a-(2-(diisopropylamino)ethylcarbamoyl)-5a,5b,8,8,11a-pentamethyl-1-(prop-1-en-2-yl)-2,3,3a,4,5,5a,5b,6,7,7a,8,11,11a,11b,12,13,13a,13b-octadecahydro-1H-cyclopenta[a]chrysen-9-yl)benzoic acid]: the EC50 was 3.8 nM.

The same assay, now with this note: NL43, read-out: EC50 Group.
With `C=C(C)[C@@H]1CC[C@]2(C(=O)NCCNCCC(=O)O)CC[C@]3(C)[C@H](CC[C@@H]4[C@@]5(C)CC=C(c6ccc(C(=O)O)cc6)C(C)(C)[C@@H]5CC[C@]43C)[C@@H]12` [Example 91, 4-((1R,3aS,5aR,5bR,7aR,11aS,11bR,13aR,13bR)-3a-(2-(2-carboxyethylamino)ethylcarbamoyl)-5a,5b,8,8,11a-pentamethyl-1-(prop-1-en-2-yl)-2,3,3a,4,5,5a,5b,6,7,7a,8,11,11a,11b,12,13,13a,13b-octadecahydro-1H-cyclopenta[a]chrysen-9-yl)benzoic acid], the EC50 was < 100 nM.

For `C=C(C)[C@@H]1CC[C@]2(C(=O)NCCC(C)C)CC[C@]3(C)[C@H](CC[C@@H]4[C@@]5(C)CC=C(c6ccc(C(=O)O)cc6)C(C)(C)[C@@H]5CC[C@]43C)[C@@H]12` [Example 129, 4-((1R,3aS,5aR,5bR,7aR,11aS,11bR,13aR,13bR)-3a-(isopentylcarbamoyl)-5a,5b,8,8,11a-pentamethyl-1-(prop-1-en-2-yl)-2,3,3a,4,5,5a,5b,6,7,7a,8,11,11a,11b,12,13,13a,13b-octadecahydro-1H-cyclopenta[a]chrysen-9-yl)benzoic acid], the EC50 is < 100 nM.

For `C=C(C)[C@@H]1CC[C@]2(C(=O)NCCc3ccccn3)CC[C@]3(C)[C@H](CC[C@@H]4[C@@]5(C)CC=C(c6ccc(C(=O)O)cc6)C(C)(C)[C@@H]5CC[C@]43C)[C@@H]12` [Example 1, 4-((1R,3aS,5aR,5bR,7aR,11aS,11bR,13aR,13bR)-5a,5b,8,8,11a-pentamethyl-1-(prop-1-en-2-yl)-3a-(2-(pyridin-2-yl)ethylcarbamoyl)-2,3,3a,4,5,5a,5b,6,7,7a,8,11,11a,11b,12,13,13a,13b-octadecahydro-1H-cyclopenta[a]chrysen-9-yl)benzoic acid], the EC50 is < 100 nM.

As for `C=C(C)[C@@H]1CC[C@]2(C(=O)NCCc3cccnc3)CC[C@]3(C)[C@H](CC[C@@H]4[C@@]5(C)CC=C(c6ccc(C(=O)O)cc6)C(C)(C)[C@@H]5CC[C@]43C)[C@@H]12` [Example 3, 4-((1R,3aS,5aR,5bR,7aR,11aS,11bR,13aR,13bR)-5a,5b,8,8,11a-pentamethyl-1-(prop-1-en-2-yl)-3a-(2-(pyridin-3-yl)ethylcarbamoyl)-2,3,3a,4,5,5a,5b,6,7,7a,8,11,11a,11b,12,13,13a,13b-octadecahydro-1H-cyclopenta[a]chrysen-9-yl)benzoic acid], the concentration for a half-maximal effect (EC50) was < 100 nM.

`C=C(C)[C@@H]1CC[C@]2(C(=O)N[C@@H](Cc3ccccc3)C(=O)O)CC[C@]3(C)[C@H](CC[C@@H]4[C@@]5(C)CC=C(c6ccc(C(=O)O)cc6)C(C)(C)[C@@H]5CC[C@]43C)[C@@H]12` [Example 58, 4-((1R,3aS,5aR,5bR,7aR,11aS,11bR,13aR,13bR)-3a-((S)-1-carboxy-2-phenylethylcarbamoyl)-5a,5b,8,8,11a-pentamethyl-1-(prop-1-en-2-yl)-2,3,3a,4,5,5a,5b,6,7,7a,8,11,11a,11b,12,13,13a,13b-octadecahydro-1H-cyclopenta[a]chrysen-9-yl)benzoic acid]: the EC50 is < 100 nM.
